From US20260256790A1, “DEBIO-0123 IN COMBINATION WITH TEMOZOLOMIDE AND RADIOTHERAPY FOR USE IN TREATING GLIOMA” (Debiopharm International S.A., priority 2023, published 2026)

Key:
[1] = test system: U87-MG-luc GBM cell line; experiment: U87-MG-luc tumors implanted subcutaneously in mice, monotherapy; type: in vivo; conditions: for Tumor volume vs vehicle controls at end of treatment: subcutaneous, 28 days
Experimental: (§1) Male athymic nude mice were injected A) subcutaneously (s.c.) or B) cerebrally (i.e.) with 1×10^5 U87-MG-luc cells in Matrigel. Animals implanted i.e. were imaged to monitor tumor establishment and growth throughout the study using an In Vivo Imaging System (IVIS) once weekly, detecting tumor bioluminescence (BLI) in photons. For animals implanted s.c., tumor growth was monitored twice weekly by caliper measurement and tumor volume calculated using the equation V=(L×W×W)/2, where V is tumor volume, L is tumor length (the longest tumor dimension) and W is tumor width (the longest tumor dimension perpendicular to L). Upon confirmation of tumor establishment, animals were randomly allocated into 3 (A, s.c.) or 2 (B, i.e.) treatment groups (n=8 animals per group) consisting of vehicle (0.5% methycellulose, 1% Tween 80 P.O. and saline I.V.) or Compound of formula (I) [CoF (I)] formulated as a suspension in 0.5% methycellulose and 1% Tween 80. The treatments were administered over a 28 day cycle and compound of formula (I) was administered orally at a dose of either 30 mg/kg (for both A and B) or 60 mg/kg (for A only), once daily (QD)). During routine monitoring, the animals were checked for any effects of tumor growth and treatments on behavior such as mobility, food and water consumption, body weight gain/loss 3 times a week, eye/hair matting and any other abnormalities. Mortality and observed clinical signs were recorded for individual animals in detail.

[2] = in vivo; set-up: species or system cynomolgus monkeys; conditions: female, cynomolgus monkey, po
Experimental: Compound of formula (I) was orally given to 3 female cynomolgus monkeys by gavage once a day for 91 days. The volume of administration was 5 mL/kg, and the vehicle was an aqueous solution of 0.5% (w/v) methylcellulose (cps 400) and 1% (w/v) Tween 80. The Compound of formula (I) dose was 10 mg/kg; this dose level was assessed in this study to be the […] no adverse effect level (NOAEL) based on general toxicology evaluation. The animals were necropsied 24 hours after the last dose after an overnight period without food. A sample from brain tissue (left forebrain) was collected from each animal, snap frozen in liquid nitrogen. and stored frozen at <−50° C. Blood samples were taken from the femoral vein into tubes containing K2EDTA, fully inverted approximately 10 times, and placed on crushed wet ice until centrifugation at 2300 g for 10 minutes at approximately 4° C. The resultant plasma was separated, transferred into polypropylene tubes, and frozen at <−50° C. Tissue and plasma samples were transported frozen on dry ice to the respective sites of analysis.

[3] = test system: U251 GBM cell line; experiment: Colony formation with radiotherapy, U251; type: cell-based; conditions: 0.1 μM to 5.0 μM, irradiated at 1, 2 and 4 Gy, p=0.6
Experimental: (§2) GBM tumor cells (T98G, LN18, SNB-19 and U251) were grown as an adherent monolayer at 37° C. in a humidified atmosphere (5% CO2, 95% air). For experimental use, tumor cells were detached from culture flasks by a 5-minute treatment with trypsin-versene, in Hanks' medium without calcium or magnesium and neutralized by addition of complete culture medium. Cells were counted and viability assessed using a 0.25% trypan blue exclusion assay. All cell lines were appropriately seeded following the conditions for monolayer colony formation in 6-well plates (Ref #152795, Nunc, Dutscher) in 1.9 ml of cell culture medium, at 3 densities for evaluation of a proclonogenic effect. […]
(§3) Treatments were performed at 24 hours (D1) after seeding by addition of ×20 concentrated compound or vehicle solutions, to obtain final concentrations of 0.1 μM to 5.0 μM of Compound of formula (I) [referred to as CoF (I) in FIG. 3]. […] After 14 days of incubation, colonies were counted after being stained through incubation with 500 μl of a solution of water containing 0.05% (w/v) of methylene blue (Ref. M4159, Sigma) for 2 hours. Colonies were counted using a colony counter pen (Ref #045855, Dutscher, Brumath, France). The Surviving Fraction was calculated for each condition using the equations described below and plotted on a semi-logarithmic graph using the Linear-Quadratic model. […]

[4] = test system: T98G GBM cell line; experiment: Colony formation with radiotherapy, T98G; type: cell-based; conditions: 0.1 μM to 5.0 μM, irradiated at 1, 2 and 4 Gy, p<0.0001
Experimental: as §2, §3

[5] = test system: U87-MG-luc GBM cell line; experiment: U87-MG-luc tumors implanted intracranially in mice, combination with temozolomide; type: in vivo; conditions: 28 day cycle
Experimental: Male athymic nude mice were injected into the cerebellum with 1×10^5 U87-MG-luc cells in Matrigel. Animals were imaged to monitor tumor establishment and growth throughout the study using an In Vivo Imaging System (IVIS) once weekly, detecting tumor bioluminescence (BLI) in photons. Once tumor establishment was confirmed, animals were randomly allocated into 8 treatment groups: vehicle (0.5% methycellulose, 1% Tween 80 P.O. and saline IV.), Compound of formula (I) [CoF (I)](formulated as a suspension in 0.5% methycellulose and 1% Tween 80) administered orally at 3 mg/kg, at 10 mg/kg or at 30 mg/kg once daily (QD) in monotherapy, temolozomide [TMZ] administered orally at 3 mg/kg once daily (QD) in monotherapy, over a 28 day cycle, and combination of TMZ+compound of formula (I) at each dose) (n=6 animals per group for monotherapy groups and n=8 animals per group for combination groups). In combination arms, Compound of formula (I) and was administered 2 hours prior to TMZ. During routine monitoring, the animals were checked for any effects of tumor growth and treatments on behavior such as mobility, food and water consumption, body weight gain/loss 3 times a week, eye/hair matting and any other abnormalities. Mortality and observed clinical signs were recorded for individual animals in detail.

[6] = test system: U87-MG-luc GBM cell line; experiment: U87-MG-luc tumors implanted cerebrally in mice, monotherapy; type: in vivo, athymic nude mice; conditions: 30 mg/kg oral QD, 28 days, p=0.0023 on day 28
Experimental: as §1, with “During routine monitoring, the animals were checked for any effects of tumor growth and treatments on behavior such as mobility, food and water consumption, body weight gain/loss 3 times a week, eye/hair matting and any other abnormalities.” left out

## Cc1cc(Nc2ncc3c(n2)N(C)CN(c2c(Cl)cccc2Cl)C3=O)ccc1C1CCN(C)CC1 [Compound of formula (I)]
[1]; all dose levels (30 or 60 mg/kg QD, 28 days), s.c. and cerebral models
  Body weight loss / tolerability: No significant body weight loss
[1]; 30 mg/kg oral QD, p=0.0009 on day 28
  Tumor volume vs vehicle controls at end of treatment: significantly smaller tumors than vehicle controls
[1]; 60 mg/kg oral QD, p<0.0001 on day 28
  Tumor volume vs vehicle controls at end of treatment: significantly smaller tumors than vehicle controls
[2]
  NOAEL at 91 days: 10 mg/kg
[3]
  Effect on radiotherapy (surviving fraction, colony formation): not significant
[4]
  Effect on radiotherapy (surviving fraction, colony formation): significantly increased effect of radiotherapy
[5]; monotherapy 3 mg/kg oral QD
  Anti-tumor activity (mean relative BLI) vs vehicle: did not result in any significant anti-tumor activity
[5]; monotherapy 10 mg/kg oral QD
  Anti-tumor activity (mean relative BLI) vs vehicle: did not result in any significant anti-tumor activity
[5]; monotherapy 30 mg/kg oral QD, p=0.0133 on day 36
  Anti-tumor activity (mean relative BLI) vs vehicle: significantly smaller tumors than vehicle controls
[6]
  Tumor size (relative BLI) vs vehicle controls at end of treatment: significantly smaller tumors than vehicle controls
